Assay results taken from paper PMC5923142, “Selection and Characterization of Rupintrivir-Resistant Norwalk Virus Replicon Cells In Vitro” (Antimicrobial Agents and Chemotherapy, 2018).

Key:
GI A105V mutant protease = target: T1, GI A105V mutant protease (Norovirus, UniProt Q83883, A1205V); experiment: Cell-based FRET assay, GI A105V protease; set-up: species or system norovirus GI.1 (M87661)
T1 construct: plasmids expressing norovirus protease from GI.1 (M87661); expressed in transfected cells; host or cells: HEK293T
T1 sequence (Q83883 1101-1281 A1205V): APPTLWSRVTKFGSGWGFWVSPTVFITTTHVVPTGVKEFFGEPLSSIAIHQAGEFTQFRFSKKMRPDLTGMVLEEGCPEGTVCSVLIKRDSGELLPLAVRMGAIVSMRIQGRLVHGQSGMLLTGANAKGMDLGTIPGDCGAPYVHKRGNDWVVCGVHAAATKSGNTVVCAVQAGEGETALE
Excerpt: The generation of plasmids expressing norovirus protease from GI.1 (M87661), GII.4 (DQ658413), or GV (DQ285629) norovirus and FRET assay constructs has been described previously ([18]). The plasmids carrying GI, GII, and GV proteases with the A105V, I109V, or A105V/I109V mutation were generated from the wild-type (WT) protease constructs described above by the QuikChange site-directed mutagenesis method. Mutant MNV genomes for reverse genetics were generated by two-step PCR mutagenesis of the WT MNV genome (pT7 MNV 3RZ) construct as described previously ([27]). The primers used for generation of the plasmids are listed in Tables S1 and S2 in the supplemental material.
The YFP/CFP ratio was used to determine FRET efficiency, as described previously ([18], [40]). Briefly, HEK293T cells were plated into black 96-well cell culture microplates (Greiner Bio-One) at a density of 5 × 10^4 cells/well in 100 μl of DMEM containing 10% fetal bovine serum with or without various concentrations of rupintrivir and then incubated for 4 h in a CO2 incubator at 37°C. […] The plates were then analyzed on a SpectraMax i3 instrument in fluorescence mode, with excitation set at 434 nm and the reading emissions set at 477 nm (CFP) and 527 nm (YFP). The background fluorescence from wells transfected with pcDNA3.1 was determined and subtracted. […]

Norwalk virus replicon = Norwalk virus replicon RNA level in HGT-NV cells by qRT-PCR; format: cell-based, Human norovirus (HuNoV) GI
Experimental: A human gastric tumor-1 (HGT-1) cell line ([29]) was used to establish a human norovirus replicon-harboring HGT (HGT-NV) cell line. In brief, viral protein genome (VPg)-linked RNA was isolated from BHK cells containing the Norwalk virus GI replicon and transfected into HGT-1 cells. HGT-NV replicon cells were selected in G418 (1 mg/ml), and limiting dilution was used to identify a clone with high viral RNA levels. The generated HGT-NV replicon cells were grown and maintained under G418 selection. The replicon-containing BHK cell line was generated by the transfection of in vitro-transcribed capped RNA from the cDNA construct of the Norwalk virus replicon ([9]), kindly provided by Kim Green (National Institutes of Health, Bethesda, MD, USA), into baby hamster kidney cells. Human embryonic kidney HEK293T cells were obtained from ATCC. The murine microglial BV-2 cell line was provided by Jennifer Pocock (University College London, London, UK). […]
The inhibitory effect of rupintrivir on HuNoV replication was assessed by quantification of the levels of GI NuNoV RNA and β-actin RNA as the reference gene. […] The real-time quantitative reverse transcription-PCR (qRT-PCR) assay was performed by using a One-Step Plus qRT-PCR kit according to the protocol of the manufacturer (Primer Design). […] Relative quantification was performed using the 2^−ΔΔCT threshold cycle (CT) method ([38]). […]

[1] = target: T2, MNV WT protease (polyprotein) (Norovirus, UniProt Q80J95); experiment: In vitro translation, MNV polyprotein processing, WT protease; format: biochemical, murine norovirus; details: 80 μM, rabbit reticulocyte lysate
T2 construct: in vitro-transcribed MNV full-length capped RNA containing either the WT or mutant proteases; made in house; host or cells: rabbit reticulocyte lysate (Flexi system, Promega), in vitro translation
T2 sequence (Q80J95 whole entry): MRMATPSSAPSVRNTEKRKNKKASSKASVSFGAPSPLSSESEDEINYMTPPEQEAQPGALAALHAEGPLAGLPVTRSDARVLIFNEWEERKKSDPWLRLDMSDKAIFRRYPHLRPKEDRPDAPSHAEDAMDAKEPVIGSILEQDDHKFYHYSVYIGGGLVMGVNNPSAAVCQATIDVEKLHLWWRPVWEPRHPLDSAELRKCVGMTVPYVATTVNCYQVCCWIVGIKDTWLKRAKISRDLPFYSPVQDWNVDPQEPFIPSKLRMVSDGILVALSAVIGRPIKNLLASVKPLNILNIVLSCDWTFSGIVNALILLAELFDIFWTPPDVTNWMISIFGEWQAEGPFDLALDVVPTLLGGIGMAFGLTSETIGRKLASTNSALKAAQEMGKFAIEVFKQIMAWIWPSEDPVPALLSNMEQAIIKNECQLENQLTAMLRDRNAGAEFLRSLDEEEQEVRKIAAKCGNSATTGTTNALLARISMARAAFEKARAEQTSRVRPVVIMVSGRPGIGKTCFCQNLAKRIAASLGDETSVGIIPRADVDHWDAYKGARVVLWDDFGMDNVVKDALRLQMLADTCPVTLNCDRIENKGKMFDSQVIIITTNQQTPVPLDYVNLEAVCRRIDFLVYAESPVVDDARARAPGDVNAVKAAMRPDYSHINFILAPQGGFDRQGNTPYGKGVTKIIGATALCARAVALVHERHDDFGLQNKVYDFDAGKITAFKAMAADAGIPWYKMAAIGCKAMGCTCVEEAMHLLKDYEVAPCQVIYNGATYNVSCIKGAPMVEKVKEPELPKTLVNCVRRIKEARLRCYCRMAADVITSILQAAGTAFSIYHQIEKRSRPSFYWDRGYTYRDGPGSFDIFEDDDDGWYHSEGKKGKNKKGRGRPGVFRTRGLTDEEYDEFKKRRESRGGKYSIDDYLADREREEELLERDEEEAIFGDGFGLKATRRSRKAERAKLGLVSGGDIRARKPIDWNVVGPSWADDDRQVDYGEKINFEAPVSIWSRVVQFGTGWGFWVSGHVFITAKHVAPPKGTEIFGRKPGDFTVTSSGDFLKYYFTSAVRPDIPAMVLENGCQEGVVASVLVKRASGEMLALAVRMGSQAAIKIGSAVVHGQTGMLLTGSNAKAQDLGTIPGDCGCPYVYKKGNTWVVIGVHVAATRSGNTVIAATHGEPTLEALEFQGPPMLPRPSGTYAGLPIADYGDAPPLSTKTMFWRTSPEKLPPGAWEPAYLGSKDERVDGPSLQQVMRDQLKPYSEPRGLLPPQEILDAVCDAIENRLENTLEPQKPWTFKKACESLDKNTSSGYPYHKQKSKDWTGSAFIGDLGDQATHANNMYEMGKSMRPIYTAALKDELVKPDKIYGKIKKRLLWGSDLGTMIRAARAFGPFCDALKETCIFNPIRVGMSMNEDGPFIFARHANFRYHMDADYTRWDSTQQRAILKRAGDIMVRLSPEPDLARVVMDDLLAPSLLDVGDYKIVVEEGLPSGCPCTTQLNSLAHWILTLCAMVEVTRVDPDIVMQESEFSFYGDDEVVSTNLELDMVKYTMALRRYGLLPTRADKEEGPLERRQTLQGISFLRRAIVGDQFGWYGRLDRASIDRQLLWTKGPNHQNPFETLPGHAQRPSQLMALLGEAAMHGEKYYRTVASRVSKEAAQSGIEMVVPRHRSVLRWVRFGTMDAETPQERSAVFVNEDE
Experimental: FIG 4 Impact of rupintrivir resistance-conferring mutations on MNV polyprotein processing in vitro. In vitro translation reactions were programmed with equal quantities of in vitro-transcribed MNV full-length capped RNA containing either the WT or mutant proteases in the presence and absence of 80 μM rupintrivir. The [^35S]methionine-labeled products were subsequently analyzed by SDS-PAGE and phosphorimaging analysis. The percentage of fully processed NS3, determined on the basis of the expected molecular mass of the proteins, was calculated and expressed relative to the total amount of viral protein produced.
In vitro translation reactions were performed using a Flexi rabbit reticulocyte lysate system (Promega). The reaction mixtures were prepared according to the manufacturer's instructions as described for capped mRNAs and programmed with 1 μg of RNA per 25-μl reaction mixture. The reaction mixtures were incubated at 30°C for 90 min prior to the addition of an equal volume of SDS-PAGE sample buffer. Samples were subsequently resolved on a 12.5% SDS-polyacrylamide gel before exposure to a phosphorimager screen.

Structure (SMILES): CCOC(=O)/C=C/[C@H](C[C@@H]1CCNC1=O)NC(=O)[C@@H](CC(=O)[C@@H](NC(=O)c1cc(C)on1)C(C)C)Cc1ccc(F)cc1 [rupintrivir, Rupintrivir]
- IC50 (GI A105V mutant protease; HEK293T cells, GI NS1/2-NS3 FRET substrate): 4200 ± 1100 nM
- fold increase in IC50 (GI A105V mutant protease; vs GI WT protease): 3.2 fold
- selectivity index (CC50/EC50) (Norwalk virus replicon; HGT-NV cells): > 77
- EC50 (Norwalk virus replicon; Norwalk virus, 72 h, read-out: 50% effective concentration (EC50), replicon RNA): 1300 ± 100 nM
- polyprotein processing (mature NS3) [1]: prevented the cleavage of the polyprotein
